# Measured values: ChEMBL document CHEMBL1201862, “PubChem BioAssay data set” (2004)
#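 How tested: cells in 96-well plates exposed to compound for 48 hours at five concentrations. GI50 marks 50% less growth.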 Calls of active or inactive are those of the source. Rule as the data show it: active = GI50 up to about 1.1 µM and inactive = higher.
# Legend:
# Assay in all cases: NCI tumour cell line growth inhibition, 48 h
# NCI-H460 = test system: NCI-H460
# RXF 393 = test system: RXF 393
# IGROV-1 = test system: IGROV-1
# TK-10 = test system: TK-10
# OVCAR-3 = test system: OVCAR-3
# OVCAR-8 = test system: OVCAR-8
# CAKI-1 = test system: CAKI-1
# Malme-3M = test system: Malme-3M
# SK-MEL-28 = test system: SK-MEL-28
# ACHN = test system: ACHN
# OVCAR-5 = test system: OVCAR-5
# HCT-116 = test system: HCT-116
# MOLT-4 = test system: MOLT-4
# K562 = test system: K562
# U-251 = test system: U-251
# MDA-N = test system: MDA-N
# BT-549 = test system: BT-549
# NCI-H522 = test system: NCI-H522
# T47D = test system: T47D
SMILES,GI50 (NCI-H460),GI50 (RXF 393),GI50 (IGROV-1),GI50 (TK-10),GI50 (OVCAR-3),GI50 (OVCAR-8),GI50 (CAKI-1),GI50 (Malme-3M),GI50 (SK-MEL-28),GI50 (ACHN),GI50 (OVCAR-5),GI50 (HCT-116),GI50 (MOLT-4),GI50 (K562),GI50 (U-251),GI50 (MDA-N),GI50 (BT-549),GI50 (NCI-H522),GI50 (T47D)
COC(=O)CC(CC(=O)C(=O)OC)C(=O)OC (stereo not drawn),> 100 µM (inactive),> 100 µM (inactive),> 100 µM (inactive),> 100 µM (inactive),> 100 µM (inactive),> 100 µM (inactive),> 100 µM (inactive),> 100 µM (inactive),> 100 µM (inactive),> 100 µM (inactive),> 100 µM (inactive),> 100 µM (inactive),> 100 µM (inactive),> 100 µM (inactive),> 100 µM (inactive),–,–,–,–
COc1ccccc1Cc1ccc(C2C=CC3(CC(=O)C=C3C)C(=O)C2)o1 (stereo not drawn),30.5 µM (inactive),17.4 µM (inactive),29.2 µM (inactive),39.5 µM (inactive),10.2 µM (inactive),17.1 µM (inactive),29.6 µM (inactive),17.9 µM (inactive),34.4 µM (inactive),33 µM (inactive),50.8 µM (inactive),27.2 µM (inactive),16 µM (inactive),20 µM (inactive),16.3 µM (inactive),18.5 µM (inactive),20.6 µM (inactive),16 µM (inactive),–
Nc1ccc2ncc(Nc3ccc(Cl)c(Cl)c3)nc2c1,27.4 µM (inactive),24.7 µM (inactive),–,70.6 µM (inactive),19.4 µM (inactive),25.5 µM (inactive),23.4 µM (inactive),23.1 µM (inactive),26.5 µM (inactive),16.9 µM (inactive),38.5 µM (inactive),21.2 µM (inactive),17.7 µM (inactive),18.1 µM (inactive),33.7 µM (inactive),–,–,17.9 µM (inactive),–
O=c1c2cc(Br)cc(Br)c2[nH]c(=S)n1-c1ccc(/N=N/c2ccc(O)c3cccnc23)cc1,–,55.2 µM (inactive),11.2 µM (inactive),66.1 µM (inactive),14 µM (inactive),23.3 µM (inactive),54.3 µM (inactive),18.7 µM (inactive),76.9 µM (inactive),25.4 µM (inactive),74.5 µM (inactive),26.2 µM (inactive),24.8 µM (inactive),10.7 µM (inactive),19.7 µM (inactive),31.4 µM (inactive),–,18.7 µM (inactive),38.2 µM (inactive)
CNC(=O)c1ccc(C(=O)NCCCCCN(O)C(=O)CCC(=O)NCCCCCN(O)C(=O)CCC(=O)NCCCCCN(O)C(C)=O)c(O)c1O,36.1 µM (inactive),32.3 µM (inactive),60.4 µM (inactive),78.9 µM (inactive),8.57 µM (inactive),30.8 µM (inactive),55.3 µM (inactive),90.8 µM (inactive),42 µM (inactive),32.8 µM (inactive),> 100 µM (inactive),32.9 µM (inactive),–,65 µM (inactive),33.9 µM (inactive),> 100 µM (inactive),56.6 µM (inactive),60.1 µM (inactive),–
CC1C2=C(CCCC2=O)N(c2ccc(Cl)cc2)C2=C1C(=O)CCC2,60.5 µM (inactive),21.6 µM (inactive),> 100 µM (inactive),86.7 µM (inactive),69.8 µM (inactive),> 100 µM (inactive),> 100 µM (inactive),–,> 100 µM (inactive),91.2 µM (inactive),> 100 µM (inactive),–,20.3 µM (inactive),29.9 µM (inactive),54.7 µM (inactive),–,73.6 µM (inactive),–,–
c1ccc(CCCC2Sc3cccc4cccc(c34)S2)cc1,> 100 µM (inactive),> 100 µM (inactive),> 100 µM (inactive),> 100 µM (inactive),> 100 µM (inactive),> 100 µM (inactive),> 100 µM (inactive),78.3 µM (inactive),> 100 µM (inactive),> 100 µM (inactive),> 100 µM (inactive),> 100 µM (inactive),–,> 100 µM (inactive),> 100 µM (inactive),–,–,92.7 µM (inactive),–
O=NN1CCN=C1c1ccc([N+](=O)[O-])cc1,> 100 µM (inactive),> 100 µM (inactive),> 100 µM (inactive),> 100 µM (inactive),> 100 µM (inactive),> 100 µM (inactive),> 100 µM (inactive),> 100 µM (inactive),> 100 µM (inactive),> 100 µM (inactive),> 100 µM (inactive),> 100 µM (inactive),> 100 µM (inactive),> 100 µM (inactive),> 100 µM (inactive),–,–,> 100 µM (inactive),–
O=c1cc(-c2ccncc2)[nH]c2cc3c(cc12)OCO3,> 100 µM (inactive),> 100 µM (inactive),> 100 µM (inactive),> 100 µM (inactive),> 100 µM (inactive),> 100 µM (inactive),–,–,> 100 µM (inactive),> 100 µM (inactive),> 100 µM (inactive),97.3 µM (inactive),> 100 µM (inactive),–,> 100 µM (inactive),> 100 µM (inactive),–,–,> 100 µM (inactive)
CCCCCCCC(=O)N1C2CC3CCC2(CS1(=O)=O)C3(C)C (stereo not drawn),30.1 µM (inactive),13.3 µM (inactive),43.2 µM (inactive),33.6 µM (inactive),> 10 µM (inactive),34.1 µM (inactive),20.2 µM (inactive),16.7 µM (inactive),14.4 µM (inactive),42.1 µM (inactive),44.8 µM (inactive),30.1 µM (inactive),17.3 µM (inactive),–,31.3 µM (inactive),26.8 µM (inactive),26.4 µM (inactive),19.4 µM (inactive),–
COc1cc(C=O)cc(/C=N/c2ccccn2)c1O,19.5 µM (inactive),1.56 µM (inactive),–,79.4 µM (inactive),19.8 µM (inactive),2.78 µM (inactive),2.94 µM (inactive),2.47 µM (inactive),3.32 µM (inactive),2.34 µM (inactive),15.8 µM (inactive),35.4 µM (inactive),24.5 µM (inactive),61.1 µM (inactive),13 µM (inactive),7.23 µM (inactive),–,–,53.3 µM (inactive)
c1ccc(-c2sc(-c3ccccc3)c3c2C(c2ccccc2)c2c(-c4ccccc4)sc(-c4ccccc4)c2C3c2ccccc2)cc1 (stereo not drawn),> 100 µM (inactive),> 100 µM (inactive),> 100 µM (inactive),> 100 µM (inactive),> 100 µM (inactive),> 100 µM (inactive),> 100 µM (inactive),> 100 µM (inactive),> 100 µM (inactive),> 100 µM (inactive),> 100 µM (inactive),> 100 µM (inactive),–,> 100 µM (inactive),> 100 µM (inactive),–,–,> 100 µM (inactive),–
Cc1cccc(/C=N\NC(=S)N2CCCCC2)n1,0.22 µM (active),0.145 µM (active),< 0.01 µM (active),0.0156 µM (active),< 0.01 µM (active),0.036 µM (active),0.126 µM (active),0.867 µM (active),0.532 µM (active),0.159 µM (active),< 0.01 µM (active),< 0.01 µM (active),< 0.01 µM (active),< 0.01 µM (active),< 0.01 µM (active),0.306 µM (active),–,< 0.01 µM (active),< 0.01 µM (active)
CC(C)(C)N1NC1C1NN1C(C)(C)C (stereo not drawn),> 100 µM (inactive),> 100 µM (inactive),> 100 µM (inactive),> 100 µM (inactive),> 100 µM (inactive),> 100 µM (inactive),> 100 µM (inactive),> 100 µM (inactive),> 100 µM (inactive),> 100 µM (inactive),> 100 µM (inactive),> 100 µM (inactive),> 100 µM (inactive),> 100 µM (inactive),> 100 µM (inactive),> 100 µM (inactive),–,> 100 µM (inactive),> 100 µM (inactive)
CSC1=N/C(=C\c2ccco2)C(=O)N1CN1CCCCC1,–,–,89.9 µM (inactive),> 100 µM (inactive),> 100 µM (inactive),75.9 µM (inactive),–,> 100 µM (inactive),> 100 µM (inactive),69.5 µM (inactive),> 100 µM (inactive),50.4 µM (inactive),71.3 µM (inactive),59.6 µM (inactive),> 100 µM (inactive),> 100 µM (inactive),–,> 100 µM (inactive),–
CC(C)(C)[Si](C)(C)OCC1OC(n2cnc3c(NC(=O)c4ccccc4)ncnc32)CC1O (stereo not drawn),32.7 µM (inactive),22.3 µM (inactive),33.7 µM (inactive),58.7 µM (inactive),39.9 µM (inactive),39.3 µM (inactive),49 µM (inactive),30.5 µM (inactive),36.7 µM (inactive),31.4 µM (inactive),36.7 µM (inactive),29.7 µM (inactive),19 µM (inactive),23.4 µM (inactive),20.5 µM (inactive),–,–,14.4 µM (inactive),30.2 µM (inactive)
CC1C(C)(C)C23CC12C1(OCCO1)C3Br (stereo not drawn),> 100 µM (inactive),> 100 µM (inactive),> 100 µM (inactive),> 100 µM (inactive),> 100 µM (inactive),> 100 µM (inactive),> 100 µM (inactive),> 100 µM (inactive),> 100 µM (inactive),> 100 µM (inactive),> 100 µM (inactive),> 100 µM (inactive),> 100 µM (inactive),> 100 µM (inactive),> 100 µM (inactive),> 100 µM (inactive),> 100 µM (inactive),–,–
